Assay results as given in patent publication US6627769B2, “RGD-analog non-peptidic molecules having anti-adhesive, anti-migration and anti-proliferative effects” (Provincia Italiana Della Congregzaione dei Figli …, priority 2001, dated 2003).
Read-outs that look alike come from different tables or passages of the source.

How the values were obtained:
[1] = system: RASMC proliferation stimulated with PDGF-BB
Protocol: (§1) For this test rat vascular smooth muscle cells (RASMC) primary cultures, obtained from adult male Wistar Rats, were used according to well known procedures (Facchiano et al., 2000, J. Cell Sci., 113(16), 2855-63).
(§2) Proliferation assay was performed, following standard procedures (Facchiano, et al., 2000, Cell Sci., 113(16), 2855-63), on 6-well plates (1×10^5 cells/plate) allowed to grow for 24 hours in DMEM supplemented with 10% Fetal Calf Serum (FCS) at 37° C. in 5% CO2. Medium was replaced with starvation medium containing either DMEM-0.1% BSA for 24 hours. Subsequently the starvation medium was replaced with fresh medium containing either 0.1% BSA alone or 0.1% BSA with PDGF-BB in the presence or absence of the RGD-analog. Every assay was carried out at different time intervals and cells were harvested and counted with hemacytometer.

[2] = system: RASMC migration toward PDGF-BB; assay: Migration assay in modified Boyden chambers toward PDGF-BB; type: cell-based, rat; settings: FIG. 2; PDGF-BB 10 ng/ml as chemoattractant
Protocol: Rat vascular smooth muscle cells (RASMC) were placed in the upper chamber of the Boyden apparatus. […] Cell migrated on the bottom face of the filters were counted at 400× magnification. Fifteen fields were counted for each filter and the average number of cells/field was calculated. Experiments were performed at least 4 times in duplicate.

[3] = system: RASMC proliferation stimulated with PDGF-BB; assay: Proliferation assay (PDGF-BB stimulated RASMC, cell counting); settings: FIG. 3
Protocol: as §1, §2

Row | Compound | toxic effects on cells [1] | inhibition of RASMC migration toward PDGF-BB gradient [2] | anti-proliferative effect (inhibition of RASMC proliferation) ([3]; 100 ng/ml, stimulated for 48 hours with PDGF-BB (10 ng/ml)) | toxic effects on cells ([3]; added to cells in the absence of PDGF-BB)
1 | NC(N)=NCCC[C@H](N)C(=O)NCC(=O)N[C@@H](CC(=O)O)C(=O)N[C@@H](CO)C(=O)O [RGDS] | do not show toxic effects |  |  | 
2 | N=C(N)NCCC[C@H](NC(=O)[C@@H](Cc1ccccc1)NC(=O)[C@H](CCCNC(=N)N)NC(=O)CC(=O)N[C@@H](CC(=O)O)C(N)=O)C(N)=O [non-peptidic RGD-analog, H2N—RfRmD—NH2] |  | in a dose-dependent manner | marked anti-proliferative effect | do not show toxic effects
